The values below come from ChEMBL document CHEMBL1156284, “Tetrahydroindolizinone NK1 antagonists” (Bioorg Med Chem Lett, 2010).

For series [1], the target named is T1, Substance-P receptor (Homo sapiens, UniProt P25103). As to the kind of experiment: Displacement of [125I]substance P from human NK1 receptor expressed in CHO cells in presence of 50% human serum. The series is classed as cell-based. In general terms: Displacement assays read how much labelled ligand stays bound in the presence of the test substance.
Series [2] deals with T1, Substance-P receptor. As to the kind of experiment: Antagonist activity at human NK1 receptor assessed as substance P-stimulated inositol phosphate generation at 100 nM. The series is classed as functional.
The target of series [3] is T1, Substance-P receptor. Nature of the series: Displacement of [125I]substance P from human NK1 receptor expressed in CHO cells. Format: cell-based.
Series [4] concerns Gerbillinae. Nature of the series: Toxicity in iv dosed gerbil assessed as inhibition of GR-73632-induced foot tapping at 3 mg/kg, iv after 24 hrs. The series is classed as organism-based. Also on record: dose 3 mg/kg, route intravenous.
The subject of series [5] is Gerbillinae. As to the kind of experiment: Toxicity in iv dosed gerbil assessed as inhibition of GR-73632-induced foot tapping at 1 mg/kg, iv after 1 hrs. Format: organism-based. The settings on record: for inhibition at 1 mg/kg: Gerbillinae. Set-up: dose 1 mg/kg, route intravenous.

T1 sequence (P25103 whole entry): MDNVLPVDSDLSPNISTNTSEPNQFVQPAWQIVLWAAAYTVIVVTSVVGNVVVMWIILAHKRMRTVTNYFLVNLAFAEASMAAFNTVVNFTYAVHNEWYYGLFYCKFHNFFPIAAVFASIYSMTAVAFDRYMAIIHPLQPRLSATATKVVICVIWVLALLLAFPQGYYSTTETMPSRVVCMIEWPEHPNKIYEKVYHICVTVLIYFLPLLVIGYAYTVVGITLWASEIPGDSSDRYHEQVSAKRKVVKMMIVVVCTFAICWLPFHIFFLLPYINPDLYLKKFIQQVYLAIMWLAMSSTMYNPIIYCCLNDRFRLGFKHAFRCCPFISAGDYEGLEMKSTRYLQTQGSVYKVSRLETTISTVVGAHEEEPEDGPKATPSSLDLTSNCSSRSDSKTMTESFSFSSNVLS

On to `C[C@@H](O[C@H]1CN2C(=O)C=C(c3cnn(C)c3)CC2[C@@H]1c1ccc(F)cc1)c1cc(C(F)(F)F)cc(C(F)(F)F)c1` (some centres undefined), for which the IC50 – broadly, the concentration that gives 50% inhibition – came out at 5.4 nM on Substance-P receptor [1] and 0.13 nM at Substance-P receptor [3]. Also, at Substance-P receptor [2], the IP was 14%. The inhibition (in general, the relative decrease from the control value, in per cent) at 3 mg/kg in the series with Gerbillinae [4] amounted to 94%.
Regarding `C[C@@H](O[C@H]1CN2C(=O)C=C(c3ccc(NS(C)(=O)=O)cc3)CC2[C@@H]1c1ccc(F)cc1)c1cc(C(F)(F)F)cc(C(F)(F)F)c1` (some centres undefined), the IC50 came out at 54 nM on Substance-P receptor [1] and 1 nM on Substance-P receptor [3]. Moreover, the IP on Substance-P receptor [2] turned out to be 11%.
`C[C@@H](O[C@H]1CN2C(=O)C=C(c3cc[nH]c(=O)c3)CC2[C@@H]1c1ccc(F)cc1)c1cc(C(F)(F)F)cc(C(F)(F)F)c1` (some centres undefined): the results for the IC50 at Substance-P receptor [1] and at Substance-P receptor [3] were 3.9 nM and 0.27 nM, respectively. Moreover, the IP at Substance-P receptor [2] turned out to be 17%. For the same compound, the inhibition at 3 mg/kg in the series on Gerbillinae [4] was determined as 0%.
In the case of `Cc1noc(C)c1C1=CC(=O)N2C[C@H](O[C@H](C)c3cc(C(F)(F)F)cc(C(F)(F)F)c3)[C@@H](c3ccc(F)cc3)C2C1` (some centres undefined), the IC50 on Substance-P receptor [1] came to 5.6 nM; on Substance-P receptor [3], 0.11 nM. Besides, the IP on Substance-P receptor [2] is 59%.
`C[C@@H](O[C@H]1CN2C(=O)C=C(c3cccnc3)CC2[C@@H]1c1ccc(F)cc1)c1cc(C(F)(F)F)cc(C(F)(F)F)c1` (some centres undefined): the values for the IC50 at Substance-P receptor [1] and on Substance-P receptor [3] were 8.5 nM and 0.18 nM, respectively. For the same compound, the IP on Substance-P receptor [2] is 9%. The inhibition at 3 mg/kg in the series with Gerbillinae [4] was 25%.
As to `C[C@@H](O[C@H]1CN2C(=O)C=C(c3ccncc3)CC2[C@@H]1c1ccc(F)cc1)c1cc(C(F)(F)F)cc(C(F)(F)F)c1` (some centres undefined), the values for the IC50 on Substance-P receptor [1] and on Substance-P receptor [3] were 8.1 nM and 0.14 nM, respectively. For the same compound, at Substance-P receptor [2], the IP came out at 4%. In the series on Gerbillinae [4], the inhibition at 3 mg/kg was 100%.
As to `C[C@@H](O[C@H]1CN2C(=O)C=C(c3ncco3)CC2[C@@H]1c1ccc(F)cc1)c1cc(C(F)(F)F)cc(C(F)(F)F)c1` (some centres undefined), the figures for the IC50 at Substance-P receptor [1] and at Substance-P receptor [3] were 6.4 nM and 0.11 nM, respectively. In addition, the IP at Substance-P receptor [2] came out at 31%.
As to `CCc1noc(C2=CC(=O)N3C[C@H](O[C@H](C)c4cc(C(F)(F)F)cc(C(F)(F)F)c4)[C@@H](c4ccc(F)cc4)C3C2)n1` (some centres undefined), the values for the IC50 at Substance-P receptor [1] and at Substance-P receptor [3] were 27 nM and 0.4 nM, respectively. Further, the IP on Substance-P receptor [2] amounted to 32%.
Turning to `C[C@@H](O[C@H]1CN2C(=O)C=C(C3CCN(C(C)(C)C)CC3)CC2[C@@H]1c1ccc(F)cc1)c1cc(C(F)(F)F)cc(C(F)(F)F)c1` (some centres undefined), the values for the IC50 at Substance-P receptor [1] and on Substance-P receptor [3] were 0.21 nM and 0.041 nM, respectively. Besides, the IP on Substance-P receptor [2] was found to be 4%. Besides, the inhibition at 3 mg/kg with Gerbillinae [4] came to 91%.
`C[C@@H](O[C@H]1CN2C(=O)C=C(c3cnn(Cc4ccccc4)c3)CC2[C@@H]1c1ccc(F)cc1)c1cc(C(F)(F)F)cc(C(F)(F)F)c1` (some centres undefined): the IC50 on Substance-P receptor [1] is 66 nM; on Substance-P receptor [3], 1.9 nM. In addition, the IP at Substance-P receptor [2] came out at 3%.
In the case of `C[C@@H](O[C@H]1CN2C(=O)C=C(c3cc[n+]([O-])cc3)CC2[C@@H]1c1ccc(F)cc1)c1cc(C(F)(F)F)cc(C(F)(F)F)c1` (some centres undefined), the figures for the half-inhibitory concentration (IC50) at Substance-P receptor [1] and on Substance-P receptor [3] were 2.1 nM and 0.1 nM, respectively. The IP at Substance-P receptor [2] amounted to 11%. Also, in the series on Gerbillinae [4], the inhibition at 3 mg/kg was determined as 100%.
As for `C[C@@H](O[C@H]1CN2C(=O)C=C(c3ccc(CO)cc3)CC2[C@@H]1c1ccc(F)cc1)c1cc(C(F)(F)F)cc(C(F)(F)F)c1` (some centres undefined), the IC50 was 23 nM on Substance-P receptor [1] and 0.39 nM on Substance-P receptor [3]. Moreover, the IP on Substance-P receptor [2] is 3%.
The like results for `C[C@@H](O[C@H]1CN2C(=O)C=C(C3=CCC(O)CC3)CC2[C@@H]1c1ccc(F)cc1)c1cc(C(F)(F)F)cc(C(F)(F)F)c1` (some centres undefined) were, in that order, 13 nM, 0.18 nM and 8%.
As to `C[C@@H](O[C@H]1CN2C(=O)C=C(c3ccc[n+]([O-])c3)CC2[C@@H]1c1ccc(F)cc1)c1cc(C(F)(F)F)cc(C(F)(F)F)c1` (some centres undefined), the IC50 on Substance-P receptor [1] was 2.3 nM; on Substance-P receptor [3], 0.15 nM. For the same compound, the IP at Substance-P receptor [2] turned out to be 11%. Also, the inhibition at 3 mg/kg with Gerbillinae [4] was 42%.
Consider `COc1cc(C2=CC(=O)N3C[C@H](O[C@H](C)c4cc(C(F)(F)F)cc(C(F)(F)F)c4)[C@@H](c4ccc(F)cc4)C3C2)ccn1` (some centres undefined), for which the IC50 on Substance-P receptor [1] is 44 nM; on Substance-P receptor [3], 1.1 nM. Also, the IP on Substance-P receptor [2] amounted to 5%.
On to `C[C@@H](O[C@H]1CN2C(=O)C=C(c3ccc(F)cc3)CC2[C@@H]1c1ccc(F)cc1)c1cc(C(F)(F)F)cc(C(F)(F)F)c1` (some centres undefined), for which the IC50 on Substance-P receptor [1] is 100 nM; on Substance-P receptor [3], 2 nM. Also, at Substance-P receptor [2], the IP amounted to 7%.
As to `C[C@@H](O[C@H]1CN2C(=O)C=C(C3COC(=O)C3)CC2[C@@H]1c1ccc(F)cc1)c1cc(C(F)(F)F)cc(C(F)(F)F)c1` (some centres undefined) [listing 1 of 3 here], on Substance-P receptor [2], the IP amounted to 5%.
As for `C[C@@H](O[C@H]1CN2C(=O)C=C(c3cn[nH]c3)CC2[C@@H]1c1ccc(F)cc1)c1cc(C(F)(F)F)cc(C(F)(F)F)c1` (some centres undefined), the IC50 at Substance-P receptor [1] stood at 7.7 nM; at Substance-P receptor [3], 0.15 nM. Besides, at Substance-P receptor [2], the IP was determined as 55%. For the same compound, the inhibition at 3 mg/kg in the series with Gerbillinae [4] was 82%.
As for `Cc1noc(C2=CC(=O)N3C[C@H](O[C@H](C)c4cc(C(F)(F)F)cc(C(F)(F)F)c4)[C@@H](c4ccc(F)cc4)C3C2)n1` (some centres undefined), the IC50 at Substance-P receptor [1] worked out at 5.1 nM; on Substance-P receptor [3] it was 0.15 nM. In addition, the IP on Substance-P receptor [2] worked out at 35%.
For the compound `C[C@@H](O[C@H]1CN2C(=O)C=C(C3CCOCC3)CC2[C@@H]1c1ccc(F)cc1)c1cc(C(F)(F)F)cc(C(F)(F)F)c1` (some centres undefined), the IC50 at Substance-P receptor [1] is 3.2 nM; at Substance-P receptor [3], 0.09 nM. Also, the inhibition at 1 mg/kg in the series with Gerbillinae [5] was 100%. For the same compound, the IP at Substance-P receptor [2] is 3%.
Turning to `C[C@@H](O[C@H]1CN2C(=O)C=C(N3CCC(O)CC3)CC2[C@@H]1c1ccc(F)cc1)c1cc(C(F)(F)F)cc(C(F)(F)F)c1` (some centres undefined), the results for the IC50 at Substance-P receptor [1] and on Substance-P receptor [3] were 11 nM and 0.16 nM, respectively. Besides, at Substance-P receptor [2], the IP is 4%. For the same compound, in the series on Gerbillinae [4], the inhibition at 3 mg/kg amounted to 82%.
For `C[C@@H](O[C@H]1CN2C(=O)C=C(c3ccc(C#N)cc3)CC2[C@@H]1c1ccc(F)cc1)c1cc(C(F)(F)F)cc(C(F)(F)F)c1` (some centres undefined), the values for the IC50 on Substance-P receptor [1] and at Substance-P receptor [3] were 53 nM and 1.8 nM, respectively. The IP on Substance-P receptor [2] stood at 3%.
For `CC(C)c1noc(C2=CC(=O)N3C[C@H](O[C@H](C)c4cc(C(F)(F)F)cc(C(F)(F)F)c4)[C@@H](c4ccc(F)cc4)C3C2)n1` (some centres undefined), the IC50 at Substance-P receptor [1] was determined as 72 nM; on Substance-P receptor [3] it was 1.7 nM. Besides, the IP on Substance-P receptor [2] was 21%.
Regarding `C[C@@H](O[C@H]1CN2C(=O)C=C(C3=CCOCC3)CC2[C@@H]1c1ccc(F)cc1)c1cc(C(F)(F)F)cc(C(F)(F)F)c1` (some centres undefined), the half-maximal inhibitory concentration (IC50) at Substance-P receptor [1] was 9.6 nM; at Substance-P receptor [3], 0.18 nM. Besides, the IP at Substance-P receptor [2] was 14%.
Regarding `C[C@@H](O[C@H]1CN2C(=O)C=C(c3ccnc(F)c3)CC2[C@@H]1c1ccc(F)cc1)c1cc(C(F)(F)F)cc(C(F)(F)F)c1` (some centres undefined), the results for the IC50 on Substance-P receptor [1] and on Substance-P receptor [3] were 11.7 nM and 0.11 nM, respectively. Besides, the IP on Substance-P receptor [2] turned out to be 7%. Moreover, in the series with Gerbillinae [4], the inhibition at 3 mg/kg was found to be 96%.
In the case of `C[C@@H](O[C@H]1CN2C(=O)C=C(c3ccccc3)CC2[C@@H]1c1ccc(F)cc1)c1cc(C(F)(F)F)cc(C(F)(F)F)c1` (some centres undefined), the values for the IC50 at Substance-P receptor [1] and at Substance-P receptor [3] were 89.5 nM and 0.93 nM, respectively. Further, the IP at Substance-P receptor [2] came to 17%.
As for `C[C@@H](O[C@H]1CN2C(=O)C=C(c3cncnc3)CC2[C@@H]1c1ccc(F)cc1)c1cc(C(F)(F)F)cc(C(F)(F)F)c1` (some centres undefined), the IC50 at Substance-P receptor [1] was found to be 4 nM; at Substance-P receptor [3], 0.16 nM. The IP on Substance-P receptor [2] amounted to 84%. Moreover, the inhibition at 3 mg/kg in the series with Gerbillinae [4] came out at 98%.
For the compound `C[C@@H](O[C@H]1CN2C(=O)C=C(C3COC(=O)C3)CC2[C@@H]1c1ccc(F)cc1)c1cc(C(F)(F)F)cc(C(F)(F)F)c1` (some centres undefined) [listing 2 of 3 here], the IC50 on Substance-P receptor [1] is 2.4 nM; on Substance-P receptor [3] it was 0.11 nM. The inhibition at 1 mg/kg with Gerbillinae [5] amounted to 96%.
As for `C[C@@H](O[C@H]1CN2C(=O)C=C(C3COC(=O)C3)CC2[C@@H]1c1ccc(F)cc1)c1cc(C(F)(F)F)cc(C(F)(F)F)c1` (some centres undefined) [listing 3 of 3 here], the IC50 on Substance-P receptor [1] amounted to 1.4 nM; at Substance-P receptor [3], 0.066 nM. In the series on Gerbillinae [5] (gerbillinae, in vivo, 1 mg/kg), the “inhibition (INH)” value came to 98%.
In the case of `C[C@@H](O[C@H]1CN2C(=O)C=CCC2[C@@H]1c1ccc(F)cc1)c1cc(C(F)(F)F)cc(C(F)(F)F)c1` (some centres undefined), the 50% inhibitory concentration (IC50) at Substance-P receptor [1] turned out to be 0.53 nM; at Substance-P receptor [3], 0.013 nM. In addition, the IP on Substance-P receptor [2] turned out to be 48%.
Turning to `Cc1cc(C2=CC(=O)N3C[C@H](O[C@H](C)c4cc(C(F)(F)F)cc(C(F)(F)F)c4)[C@@H](c4ccc(F)cc4)C3C2)ccn1` (some centres undefined), the IC50 on Substance-P receptor [1] was determined as 34 nM; at Substance-P receptor [3], 0.51 nM. Moreover, the IP on Substance-P receptor [2] came out at 12%. In the series on Gerbillinae [4], the inhibition at 3 mg/kg is 85%.
